According to PMC5796218 (International Journal of Molecular Sciences, 2018):
Counter-ions that a name gives are not always drawn. Like-named read-outs stand apart in the source and are kept apart here.

How the values were obtained:
[1] = target: MuOPR 38–51 peptide (mu opioid receptor) (Homo sapiens, UniProt P35372); assay: biochemical
[2] = target: MuOPR 211–226 peptide (mu opioid receptor) (Homo sapiens, UniProt P35372); assay: biochemical
[3] = target: MuOPR 132–143 peptide (mu opioid receptor) (Homo sapiens, UniProt P35372); assay: biochemical
[4] = target: MuOPR 111–122 peptide (mu opioid receptor) (Homo sapiens, UniProt P35372); assay: biochemical
[5] = target: MuOPR 121–131 peptide (mu opioid receptor) (Homo sapiens, UniProt P35372); assay: biochemical
[6] = target: intact, purified human mu opioid receptor (muOPR) (Homo sapiens, UniProt P35372); assay: biochemical; settings: for binding to intact muOPR (in words): UV spectra, serial additions in Tris buffer
Protocol: MuOPR expression was achieved using the muOPR transformed C43 (DE3) cell strain of E. coli in Terrific Broth medium as reported earlier with 0.4 mM isopropyl β-D-1-thiogalactopyranoside induction at 18 °C for 24 h. Bacterial cell cultures were harvested by centrifugation at 4000× g for 20 min. Periplasmic fraction from the harvested cells was removed by osmatic shock. Cells were resuspended in 7 mL of lysis buffer (20 mM Tris-HCl pH 8.0, 150 mM NaCl, 10% glycerol, 2 mM MgCl2, 10 μM E-64, 1 μM pepstatin-A, 10 μM leupeptin, 1 mM pefabloc SC, 2 mM β-Mercaptoethanol, 1 mg/mL lysozyme, 30 U/mL DNase) per gram of cell pellet and incubated on ice for 30 min with continuous stirring. […] The solubilized membrane sample was centrifuged at 100,000× g for 1 h at 4 °C and the supernatant was collected. Imidazole was added to the supernatant to a final concentration of 5 mM before starting purification using Ni-NTA resin in batch mode as reported. Eluted fractions with muOPR were pooled, concentrated and subjected to size exclusion chromatography (SEC) using HiLoad 16/600 Superdex 200 pg column (GE Healthcare Sciences, Berlin, Germany) equilibrated with 20 mM Tris pH 8, 150 mM NaCl, 0.1% Fos12, 10% Glycerol and 1 mM TCEP. SEC elution fractions were analyzed by SDS-PAGE and western blotting with Monoclonal Anti-polyHistidine-Peroxidase antibody (Sigma-Aldrich) for protein presence and purity before use.
The spectrum of the wells was then recorded from 190 to 260 nm using a Spectramax plus scanning spectrophotometer (Molecular Devices, San Jose, CA, USA) using SOFTMax PRO software (Molecular Devices, San Jose, CA, USA). The procedure described above was repeated an additional eleven times using compound dilutions of increasing concentration each time.
Data were analyzed in Excel. The raw spectra were processed by averaging the three runs of each condition and then subtracting the absorbance of the buffer alone at each volume. The triplicate data for each experimental condition were averaged. The compound + buffer data were subtracted from the muOPR + compound data at each volume to leave the spectrum of the muOPR under that experimental condition. […] Because the final calculations involve several subtractions, error bars […].

muOPR peptides = muOPR peptides (Homo sapiens, UniProt P35372); type: binding
Protocol: (§1) Each of these receptor peptides were made into individual stock solutions with a concentration of 1 mg/mL in pH 7.40 phosphate buffered saline solution (Fischer Scientific, Hampton, NH, USA). For each individual test, the stock solution was diluted to 0.1 or 0.2 mg/mL solution. […] The adrenergic or compounds were made up at 1.0 mM solutions and then serially diluted by thirds eleven times using phosphate buffer.
(§2) After the solutions were made, a 96-well quartz crystal plate was prepared to be run through the spectrophotometer at room temperature (approximately 24 °C). […] The absorbance of each receptor peptide without the presence of the adrenergic compound was measured as well. The absorbance of each well was measured at every 10-nm increment from 190–260 nm. The maximum absorbance that can be measured was set to be 4. Each well had 200 μL of solution, so if the absorbance of one component was being measured, it was diluted by half with phosphate buffer.
(§3) If the measured absorbance is different than the additive absorbance of each compound, then that indicates some sort of molecular interaction. The binding can be quantified by graphing the difference in absorbance against the concentration of the compound varied to provide a binding curve. The absorbance for the phosphate buffer is subtracted for each well before any calculations are done. The data are analyzed by finding the additive absorbance, and plotting the difference between this absorbance and the actual absorbance against the concentration of the adrenergic compound. […] The binding constants were estimated from the half-saturation point at 200 nm since the absorbance differences tended to be maximized at this wavelength.

[7] = target: INSR 105–113 peptide (insulin receptor) (Homo sapiens, UniProt P06213); assay: biochemical
Protocol: as §1, §2, §3

[8] = target: INSR 157–166 peptide (insulin receptor) (Homo sapiens, UniProt P06213); assay: biochemical
Protocol: as §1, §2
(§4) If the measured absorbance is different than the additive absorbance of each compound, then that indicates some sort of molecular interaction. The binding can be quantified by graphing the difference in absorbance against the concentration of the compound varied to provide a binding curve. The absorbance for the phosphate buffer is subtracted for each well before any calculations are done. […]

[9] = target: B2AR 103–113 peptide (β-2-adrenergic receptor) (Homo sapiens, UniProt P07550); assay: biochemical
Protocol: as §1, §2, §4

[10] = target: HIST 89–98 peptide (histamine 1 receptor) (Homo sapiens, UniProt P35367); assay: biochemical
[11] = target: B2AR 97–106 peptide (β-2-adrenergic receptor) (Homo sapiens, UniProt P07550); assay: biochemical
Protocol: as §1, §2, §3

[12] = target: HIST 166–172 peptide (histamine 1 receptor) (Homo sapiens, UniProt P35367); assay: biochemical
[13] = target: HIST 77–87 peptide (histamine 1 receptor) (Homo sapiens, UniProt P35367); assay: biochemical
[14] = target: HIST 177–183 peptide (histamine 1 receptor) (Homo sapiens, UniProt P35367); assay: biochemical
[15] = target: D1DR 175–188 peptide (dopamine receptor D1) (Homo sapiens, UniProt P21728); assay: biochemical
[16] = target: D1DR 89–100 peptide (dopamine receptor D1) (Homo sapiens, UniProt P21728); assay: biochemical
[17] = target: B2AR 175–188 peptide (β-2-adrenergic receptor) (Homo sapiens, UniProt P07550); assay: biochemical
Protocol: as §1, §2, §3

[18] = target: B2AR 93–100 peptide (β-2-adrenergic receptor) (Homo sapiens, UniProt P07550); assay: biochemical
Protocol: as §1, §2, §3

[19] = target: HIST 105–115 peptide (histamine 1 receptor) (Homo sapiens, UniProt P35367); assay: biochemical
[20] = target: HIST 96–107 peptide (histamine 1 receptor) (Homo sapiens, UniProt P35367); assay: biochemical
[21] = target: Met-enkephalin (Homo sapiens); assay: UV spectroscopy; settings: modification not given

muOPR peptides, sequence (P35372 with tags, fused parts or gaps): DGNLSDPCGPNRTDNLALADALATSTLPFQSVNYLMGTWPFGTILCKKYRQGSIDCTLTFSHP
intact, purified human mu opioid receptor (muOPR), sequence (P35372 whole entry): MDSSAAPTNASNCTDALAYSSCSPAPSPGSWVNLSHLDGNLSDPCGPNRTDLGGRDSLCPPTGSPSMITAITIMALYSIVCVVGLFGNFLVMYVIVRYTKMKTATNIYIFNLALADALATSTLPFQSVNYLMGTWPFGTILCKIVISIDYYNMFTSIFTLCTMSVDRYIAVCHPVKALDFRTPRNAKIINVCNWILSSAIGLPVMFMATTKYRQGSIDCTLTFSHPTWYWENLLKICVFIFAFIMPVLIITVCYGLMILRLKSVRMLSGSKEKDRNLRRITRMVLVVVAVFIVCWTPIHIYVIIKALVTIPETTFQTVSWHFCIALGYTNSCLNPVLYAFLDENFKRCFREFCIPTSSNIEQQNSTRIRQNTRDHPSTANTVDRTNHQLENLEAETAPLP

With `NCCc1c[nH]c2ccc(O)cc12` [5HT, 5-hydroxytryptamine] the Kd [1] was 100 µM, the Kd [2] was 90 µM and the Kd [3] was 100 µM. For the same molecule, the Kd [4] was 100 µM and the Kd [5] was 350 µM.

With `CC(=O)OCC[N+](C)(C)C` [ACh, acetylcholine] the Kd [1] was > 1000 µM, the Kd [2] was > 1000 µM and the Kd [6] was > 1000 µM. For the same molecule, the Kd ([6]; Kd @ 210 nm (μM), 210 nm) was > 1000 µM, the “binding to intact muOPR (in words)” value [6] was “No significant binding” and the Kd [3] was > 1000 µM. The Kd [4] was > 1000 µM, the “binding to the muOPR peptides (in words)” value (muOPR peptides; UV spectroscopy) was “no measurable binding” and the Kd [5] was > 1000 µM.

With `O=C1O[C@H]([C@@H](O)CO)C(O)=C1O` [ASC, ascorbic acid] the “binding to intact muOPR (in words)” value [6] was “No significant binding” and the “binding to the muOPR peptides (in words)” value (muOPR peptides; UV spectroscopy) was “did not bind”.

With `NCCc1ccc(O)c(O)c1` [DOP, dopamine] the “binding to the muOPR peptides (in words)” value (muOPR peptides) was “only displayed the low affinity binding”.

In the case of `O=C(O)CN(CCN(CC(=O)O)CC(=O)O)CC(=O)O` [EDTA, ethylenediaminetetraacetic acid], the Kd [7] is reported as > 1000 µM and the Kd [8] is reported as > 1000 µM.

For `OC[C@H]1OC(O)[C@H](O)[C@@H](O)[C@@H]1O` (some centres unmarked) [GLUC, glucose], the Kd [9] was > 1000 µM, the Kd [10] was > 1000 µM and the Kd [11] was > 1000 µM. For the same molecule, the Kd [1] was > 1000 µM, the Kd [12] was > 1000 µM and the Kd [13] was > 1000 µM. The Kd [14] was > 1000 µM, the Kd [15] was > 1000 µM and the Kd [2] was > 1000 µM. The Kd [16] was > 1000 µM, the Kd [17] was > 1000 µM and the Kd [18] was > 1000 µM. For the same molecule, the Kd [3] was > 1000 µM, the Kd [4] was > 1000 µM and the Kd [19] was > 1000 µM. The Kd [5] was > 1000 µM and the Kd [20] was > 1000 µM.

For `NCCc1c[nH]cn1` [Hist, histamine], the “binding to the muOPR peptides (in words)” value (muOPR peptides) was “no measurable binding”.

Molecule `CN1CC[C@]23c4c5ccc(O)c4O[C@H]2[C@@H](O)C=C[C@H]3[C@H]1C5` [Morph, morphine sulfate] has a Kd [15] of 10 µM and a Kd [16] of 20 µM.

`C=CCN1CC[C@]23c4c5ccc(O)c4O[C@H]2C(=O)CC[C@@]3(O)[C@H]1C5` [Nalox, naloxone] was tested, and the Kd [9] was 3 µM, the Kd [11] was 6 µM and the Kd [7] was 20 µM. For the same molecule, the Kd [8] was 200 µM, the Kd [15] was 20 µM and the Kd [16] was 5 µM. It also gave a Kd [17] of 40 µM and a Kd [18] of 5 µM.

In the case of `Cc1cc2nc3c(=O)[nH]c(=O)nc-3n(C[C@H](O)[C@H](O)[C@H](O)CO)c2cc1C` [RIBO, riboflavin], the Kd [10] is reported as 400 µM, the Kd [11] is reported as 600 µM and the Kd [1] is reported as 50 µM. For the same molecule, the Kd [7] was 500 µM, the Kd [13] was > 1000 µM and the Kd [15] was 300 µM. The Kd [2] was > 1000 µM, the Kd [16] was 600 µM and the Kd [17] was 500 µM. The Kd [18] was 400 µM, the Kd [3] was 100 µM and the Kd [4] was > 1000 µM. The Kd [19] was 450 µM, the Kd [5] was > 1000 µM and the Kd [20] was 500 µM.

B1: mu opioid receptor (peptide)
chain: NLALADALATST
In the case of B1, the Kd [21] is reported as 80 µM.

B2: mu opioid receptor (peptide)
chain: KYRQGSIDCTLTFSHP
In the case of B2, the Kd [21] is reported as 1 µM.

B3: mu opioid receptor (peptide)
chain: TLPFQSVNYL
Molecule B3 has a Kd [21] of 90 µM.
